Data set [1] has as its system Staphylococcus aureus. Put plainly: Antibacterial activity against drug-resistant Staphylococcus aureus USA300 JE2 assessed as inhibition of bacterial growth. The class given is functional.
For data set [2], the system named is Staphylococcus aureus. As to the kind of experiment: Antibacterial activity against drug-sensitive Staphylococcus aureus ATCC25923 assessed as inhibition of bacterial growth. The class given is functional.
The test system of data set [3] is Staphylococcus aureus. Put plainly: Ex vivo antibacterial activity against methicillin-resistant Staphylococcus aureus assessed as inhibition of bacterial growth by cell infection model. The class given is functional.
Data set [4] in a line: Cytotoxicity against HFL1 cells. The class given is toxicity, cell-based. Conditions: human.
The nature of data set [5]: Cytotoxicity against mouse L929 cells. The class given is toxicity, cell-based.
A short description of data set [6]: AUC (0 to infinity) in rat at 2 mg/kg, iv. Conditions: in vivo. The class given is ADME, organism-based.
Data set [7] can be described thus: Metabolic stability in rat liver microsomes assessed as parent compound remaining measured after 30 mins. The class given is ADME, Microsome. Conditions: read-out: Stability. (In general: Liver microsomes are a subcellular fraction often used to study metabolism.)
Data set [8] concerns the target Voltage-gated inwardly rectifying potassium channel KCNH2 (Homo sapiens, UniProt Q12809). As to the kind of experiment: Inhibition of hERG by binding assay. The class given is toxicity. On the technique in general: Block of hERG is tested as a sign of cardiac risk.
A short description of data set [9]: Cytotoxicity against mouse NIH3T3 cells. The class given is toxicity, cell-based.
A short description of data set [10]: Cytotoxicity against African green monkey Vero cells. The class given is toxicity, cell-based, Chlorocebus sabaeus.
Data set [11] can be described thus: Clearance in rat at 2 mg/kg, iv. Conditions: in vivo. The class given is ADME, organism-based.
Data set [12] is described as follows: AUC(0 to 24 hrs) in rat at 2 mg/kg, iv. The class given is ADME, organism-based. Conditions: in vivo.
Data set [13] in a line: Cmax in rat at 5 mg/kg, po or 2 mg/kg, iv. The class given is ADME, organism-based. Conditions: in vivo.
Data set [14] is described as follows: Half life in rat at 2 mg/kg, iv. Conditions: in vivo. The class given is ADME, organism-based.
Data set [15] can be described thus: Oral bioavailability in rat at 5 mg/kg. The class given is ADME, organism-based. Conditions: in vivo.
Data set [16] in a line: Metabolic stability in human liver microsomes assessed as parent compound remaining measured after 30 mins. The class given is ADME, Microsome. Conditions: read-out: Stability.
Data set [17] is described as follows: Metabolic stability in mouse liver microsomes parent compound remaining measured after 30 mins. The class given is ADME, Microsome. Conditions: read-out: Stability.
Data set [18] can be described thus: Cytotoxicity against CHO-K1 cells. Conditions: Chinese hamster. The class given is toxicity, cell-based, Cricetulus griseus.
Data set [19] can be described thus: Cytotoxicity against human HepG2 cells. The class given is toxicity, cell-based.

Values after ≈ are worked out from the molar mass of the structure shown. A value given as a limit tells only on which side of the number the result lay.

Voltage-gated inwardly rectifying potassium channel KCNH2, sequence (Q12809 whole entry): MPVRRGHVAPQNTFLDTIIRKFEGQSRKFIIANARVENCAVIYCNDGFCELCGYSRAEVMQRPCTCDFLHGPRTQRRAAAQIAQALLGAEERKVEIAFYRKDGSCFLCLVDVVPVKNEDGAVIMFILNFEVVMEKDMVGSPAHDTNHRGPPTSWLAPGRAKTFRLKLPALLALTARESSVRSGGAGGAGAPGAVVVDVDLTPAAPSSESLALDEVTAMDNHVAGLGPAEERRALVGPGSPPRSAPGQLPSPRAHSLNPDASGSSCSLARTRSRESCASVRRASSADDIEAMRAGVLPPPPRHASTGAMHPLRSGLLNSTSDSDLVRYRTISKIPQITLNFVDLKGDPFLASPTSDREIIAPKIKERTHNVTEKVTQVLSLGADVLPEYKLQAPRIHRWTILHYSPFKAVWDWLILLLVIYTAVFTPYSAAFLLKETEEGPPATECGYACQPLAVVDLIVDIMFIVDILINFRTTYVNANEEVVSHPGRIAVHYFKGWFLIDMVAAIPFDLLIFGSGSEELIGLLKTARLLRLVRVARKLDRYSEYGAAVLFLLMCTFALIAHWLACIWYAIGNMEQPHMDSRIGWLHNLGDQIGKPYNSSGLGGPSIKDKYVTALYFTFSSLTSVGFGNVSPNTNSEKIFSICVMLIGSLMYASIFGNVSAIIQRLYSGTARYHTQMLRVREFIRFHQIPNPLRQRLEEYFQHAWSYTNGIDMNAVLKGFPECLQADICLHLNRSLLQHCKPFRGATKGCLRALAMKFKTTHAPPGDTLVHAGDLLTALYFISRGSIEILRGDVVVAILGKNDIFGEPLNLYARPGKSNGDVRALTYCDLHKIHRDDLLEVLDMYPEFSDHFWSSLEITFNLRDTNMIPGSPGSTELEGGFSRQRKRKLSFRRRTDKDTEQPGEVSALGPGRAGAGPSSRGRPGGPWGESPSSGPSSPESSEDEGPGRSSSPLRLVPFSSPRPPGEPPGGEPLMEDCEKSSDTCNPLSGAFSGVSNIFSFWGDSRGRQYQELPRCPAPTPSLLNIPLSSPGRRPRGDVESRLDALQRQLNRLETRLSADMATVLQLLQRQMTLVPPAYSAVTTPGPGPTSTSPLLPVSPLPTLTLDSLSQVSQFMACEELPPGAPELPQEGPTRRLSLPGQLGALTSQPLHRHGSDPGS

On to `CC(=O)c1c(Nc2ccc(F)c(F)c2F)[nH]c2c(F)cc(F)cc2c1=O`, for which the MIC50 – broadly, the lowest concentration that inhibits either 50% of growth or 50% of the strains tested, depending on the study – in the data set with Staphylococcus aureus [1] was 0.95 µM (≈ 0.35 µg/mL); in the data set with Staphylococcus aureus [2], 1.11 µM (≈ 0.409 µg/mL); in the data set with Staphylococcus aureus [3], 6.79 µM (≈ 2.5 µg/mL).
Turning to `CC(=O)c1c(NCc2ccc(F)cc2)[nH]c2c(F)cc(F)cc2c1=O`, the MIC50 with Staphylococcus aureus [1] and in the data set with Staphylococcus aureus [2] was more than 20 µM each time.
`COc1ccc(Nc2[nH]c3c(F)cc(F)cc3c(=O)c2C(C)=O)cc1`: the MIC50 with Staphylococcus aureus [1] and with Staphylococcus aureus [2] was more than 20 µM throughout.
Regarding `CC(C)C(=O)c1c(Nc2ccc(F)cc2F)[nH]c2c(Cl)cc(Cl)c(Cl)c2c1=O`, the IC50 (commonly the midpoint of a concentration-inhibition curve) was 10.6 µM in data set [4]; more than 100 µM in data set [5]; 60 µM in [8]; 67.5 µM in [9]; 61.3 µM in [10]; 4.9 µM in [18]. The IC50 in data set [19] was more than 256 µM. Further, the AUC is reported as 175.71 uM.hr/ml in data set [6] and 31.97 uM.hr/ml in data set [12]. The values for the remaining at 0.5 h in [7], in [16] and in data set [17] were 81.9%, 95.6% and 68.1%, respectively. In addition, in data set [11], the clearance (in general, the rate of elimination divided by the concentration) is 0.5 mL/min/kg. The Cmax in data set [13] is given as 5.91 uM/ml. Further, the half-life – broadly, how long it takes for the measured level to halve – in data set [14] is 25.6 h. The bioavailability (commonly the share of a dose that reaches the circulation, judged against a reference dose that is usually intravenous) in data set [15] is more than 99.9%. The MIC50 is 0.06 µM (≈ 0.0267 µg/mL) in the data set on Staphylococcus aureus [1], 0.05 µM (≈ 0.0223 µg/mL) in the data set on Staphylococcus aureus [2] and 3.9 µM (≈ 1.74 µg/mL) in the data set on Staphylococcus aureus [3].
As for `CC(=O)c1c(N2CCCCC2)[nH]c2c(F)cc(F)cc2c1=O`, the MIC50 in the data set with Staphylococcus aureus [1] and in the data set with Staphylococcus aureus [2] was more than 20 µM throughout.
On to `CC(C)C(=O)c1c(Nc2ccc(F)cc2F)[nH]c2c(F)cc(F)cc2c1=O`, for which the MIC50 in the data set on Staphylococcus aureus [1] stood at 1.27 µM (≈ 0.48 µg/mL); in the data set with Staphylococcus aureus [2], 1.36 µM (≈ 0.515 µg/mL); with Staphylococcus aureus [3], 10 µM (≈ 3.79 µg/mL).
Consider `CC(=O)c1c(N2CCOCC2)[nH]c2c(F)cc(F)cc2c1=O`, for which the MIC50 with Staphylococcus aureus [1] and in the data set on Staphylococcus aureus [2] was more than 20 µM throughout.
For `CC(C)C(=O)c1c(Nc2ccc(F)c(F)c2F)[nH]c2c(F)cc(F)cc2c1=O`, the AUC in [6] was 28.9 uM.hr/ml; in data set [12], 28.3 uM.hr/ml. For the same compound, the IC50 in data set [8] is more than 100 µM; in [10], 86.1 µM; in data set [19] it was 63.7 µM. This compound had a CL in [11] (iv, 2 mg/kg) of 1.2 mL/min/kg. The compound also had a Cmax in data set [13] of 2.32 uM/ml. The bioavailability in data set [15] was more than 55.8%. The MIC50 came out at 0.2 µM (≈ 0.0793 µg/mL) in the data set on Staphylococcus aureus [1], 0.18 µM (≈ 0.0713 µg/mL) in the data set on Staphylococcus aureus [2] and 0.71 µM (≈ 0.281 µg/mL) in the data set with Staphylococcus aureus [3].
For the compound `CC(=O)c1c(NCc2ccc(F)cc2F)[nH]c2c(F)cc(F)cc2c1=O`, the MIC50 in the data set on Staphylococcus aureus [1] and with Staphylococcus aureus [2] was more than 20 µM in each case.
For `CC(=O)c1c(Nc2ccc(F)cc2F)[nH]c2c(F)cc(F)cc2c1=O`, the values for the MIC50 in the data set on Staphylococcus aureus [1], in the data set on Staphylococcus aureus [2] and with Staphylococcus aureus [3] were 3.84 µM (≈ 1.35 µg/mL), 4.41 µM (≈ 1.54 µg/mL) and 9.48 µM (≈ 3.32 µg/mL), respectively.
In the case of `CC(C)C(=O)c1c(Nc2ccc(F)c(F)c2F)[nH]c2c(Cl)cc(Cl)c(Cl)c2c1=O`, the values for the MIC50 in the data set on Staphylococcus aureus [1], in the data set on Staphylococcus aureus [2] and in the data set on Staphylococcus aureus [3] were 0.05 µM (≈ 0.0232 µg/mL), 0.04 µM (≈ 0.0185 µg/mL) and 0.57 µM (≈ 0.264 µg/mL), respectively. In addition, the IC50 in data set [19] stood at 31.2 µM.
`COc1ccc(CNc2[nH]c3c(F)cc(F)cc3c(=O)c2C(C)=O)cc1`: the MIC50 in the data set on Staphylococcus aureus [1] and in the data set on Staphylococcus aureus [2] was more than 20 µM each time.
As for `CCN(CC)CCCC(C)Nc1[nH]c2c(F)cc(F)cc2c(=O)c1C(C)=O` (centres undefined), the MIC50 with Staphylococcus aureus [1] and in the data set on Staphylococcus aureus [2] was more than 20 µM throughout.
In the case of `CC(=O)c1c(Nc2ccc(Cl)cc2Cl)[nH]c2c(Cl)ccc(C(F)(F)F)c2c1=O`, the MIC50 was 0.41 µM (≈ 0.184 µg/mL) with Staphylococcus aureus [1], 0.44 µM (≈ 0.198 µg/mL) in the data set on Staphylococcus aureus [2] and 15.2 µM (≈ 6.83 µg/mL) with Staphylococcus aureus [3].
On to `CC(C)C(=O)c1c(Nc2ccc(Cl)cc2Cl)[nH]c2c(F)cc(F)cc2c1=O`, for which the MIC50 in the data set with Staphylococcus aureus [1] amounted to 0.19 µM (≈ 0.0781 µg/mL); in the data set on Staphylococcus aureus [2] it was 0.2 µM (≈ 0.0822 µg/mL); with Staphylococcus aureus [3], 1.45 µM (≈ 0.596 µg/mL). For the same compound, the IC50 in data set [19] amounted to 39 µM.
Take `CC(=O)c1c(Nc2ccc(Cl)cc2Cl)[nH]c2c(Cl)cc(Cl)c(Cl)c2c1=O`: the MIC50 with Staphylococcus aureus [1] came out at 0.27 µM (≈ 0.122 µg/mL); in the data set on Staphylococcus aureus [2] it was 0.28 µM (≈ 0.126 µg/mL); in the data set on Staphylococcus aureus [3], 34.8 µM (≈ 15.7 µg/mL).
Take `CC(=O)c1c(Nc2ccc(Cl)cc2Cl)[nH]c2c(F)cc(F)cc2c1=O`: the MIC50 in the data set with Staphylococcus aureus [1] amounted to 0.39 µM (≈ 0.149 µg/mL); in the data set with Staphylococcus aureus [2], 0.41 µM (≈ 0.157 µg/mL); in the data set on Staphylococcus aureus [3] it was 10.1 µM (≈ 3.88 µg/mL).
Turning to `CC(=O)c1c(Nc2cc(F)cc(F)c2)[nH]c2c(F)cc(F)cc2c1=O`, the MIC50 in the data set on Staphylococcus aureus [1] and with Staphylococcus aureus [2] was more than 20 µM throughout.
`CC[C@H]1OC(=O)[C@H](C)[C@@H](O[C@H]2C[C@@](C)(OC)[C@@H](O)[C@H](C)O2)[C@H](C)[C@@H](O[C@@H]2O[C@H](C)C[C@H](N(C)C)[C@H]2O)[C@](C)(O)C[C@@H](C)C(=O)[C@H](C)[C@@H](O)[C@]1(C)O` [ERYTHROMYCIN]: in the data set with Staphylococcus aureus [2], the MIC50 stood at 0.74 µM (≈ 0.543 µg/mL).
As to `CN[C@H](CC(C)C)C(=O)N[C@H]1C(=O)N[C@@H](CC(N)=O)C(=O)N[C@H]2C(=O)N[C@H]3C(=O)N[C@H](C(=O)N[C@H](C(=O)O)c4cc(O)cc(O)c4-c4cc3ccc4O)[C@H](O)c3ccc(c(Cl)c3)Oc3cc2cc(c3O[C@@H]2O[C@H](CO)[C@@H](O)[C@H](O)[C@H]2O[C@H]2C[C@](C)(N)[C@H](O)[C@H](C)O2)Oc2ccc(cc2Cl)[C@H]1O` [VANCOMYCIN], in the data set on Staphylococcus aureus [2], the MIC50 turned out to be 1.97 µM (≈ 2.86 µg/mL).

The record behind these values is ChEMBL document CHEMBL6114933, “Discovery of 3-acyl-2-anilino-1,4-dihydroquinolin-4-one derivatives as potential inhibitors of methicillin-resistant Staphylococcus aureus” (Bioorg Med Chem Lett, 2025).
